# Laboratory results as given in patent publication US6605424B1, “Method of detecting inhibitors of agonist-specific desensitization” (Duke University, priority 1989, dated 2003).
# “And” between values parts separate entries of the source, which are not always exact repeats. Equal entries are not always repeated. Residues, ends and D or L forms follow the SMILES beside them. No end group written: not given here.
# How the values were obtained:
# βAR kinase [1] = biological target: T1, βAR kinase (Bos taurus, UniProt P21146); assay: Phosphorylation of rhodopsin (urea-treated rod outer segments) by βAR kinase; assay type: biochemical, bovine; conditions: for inhibition of βAR kinase: polycations, FIG. 3; for Hill coefficient of inhibition: data of FIG. 1
# T1 construct: βAR kinase was purified from bovine cerebral cortex; from tissue; host or cells: bovine cerebral cortex
# T1 sequence (P21146 1-689): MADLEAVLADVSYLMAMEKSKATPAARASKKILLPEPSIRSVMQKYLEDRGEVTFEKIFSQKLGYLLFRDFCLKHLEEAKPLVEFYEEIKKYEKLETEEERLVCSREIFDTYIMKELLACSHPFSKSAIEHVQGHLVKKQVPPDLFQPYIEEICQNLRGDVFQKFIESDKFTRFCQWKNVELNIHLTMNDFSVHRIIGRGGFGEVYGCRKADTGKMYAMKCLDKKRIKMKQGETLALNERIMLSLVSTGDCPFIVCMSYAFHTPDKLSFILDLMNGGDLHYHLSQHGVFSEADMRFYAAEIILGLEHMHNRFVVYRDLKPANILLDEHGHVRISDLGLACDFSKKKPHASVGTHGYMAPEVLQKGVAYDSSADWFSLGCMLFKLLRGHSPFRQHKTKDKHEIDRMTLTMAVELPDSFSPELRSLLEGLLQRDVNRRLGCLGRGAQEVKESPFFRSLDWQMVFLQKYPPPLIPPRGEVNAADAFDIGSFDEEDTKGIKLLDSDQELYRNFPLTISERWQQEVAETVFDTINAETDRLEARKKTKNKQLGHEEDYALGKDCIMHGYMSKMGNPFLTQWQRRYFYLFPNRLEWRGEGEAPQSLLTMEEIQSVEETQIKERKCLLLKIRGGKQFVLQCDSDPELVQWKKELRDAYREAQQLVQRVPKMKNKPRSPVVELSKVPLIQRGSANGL
# Experimental: βAR kinase was purified from bovine cerebral cortex by modification of procedure of Benovic et al (J. Biol. Chem. (1987) 262:9026-9032). Briefly, 250 g of bovine cerebral cortex were homogenized with a Brinkmann tissue disrupter and centrifuged (40,000×g, 30 min). The supernatant was then precipitated with 13-26% ammonium sulfate. This material was initially chromatographed on a Ultrogel AcA34 column equilibrated with 5 mM Tris-HCl, pH 7.5, 2 mM EDTA, 10 μg/ml leupeptin, 5 μg/ml pepstatin, 10 μg/ml benzamidine, 0.2 mM phenylmethylsulfonyl fluoride (buffer A). The peak activity was diluted with an equal volume of buffer A containing 0.04% Triton X-100 before being applied to a DEAE-Sephacel column. Elution was accomplished with a 0-80 mM NaCl gradient in buffer A containing 0.02% Triton X-100. The peak activity was then applied to a CM-Fractogel column and eluted with a 0-100 mM NaCl gradient in buffer A containing 0.02% Triton X-100. The purified kinase is stable at 4° C. for several months. For these studies the βAR kinase preparations were >75% pure.
# Rod outer segments were prepared from bovine retinas by stepwise sucrose gradient centrifugation (Wilden et al Biochemistry (1982) 21:3014-3022). Rhodopsin kinase-free rod outer segments were prepared by treatment with 5 M urea (Shichi et al J. Biol. Chem. (1978) 253:7040-7046) and consisted of ˜95% rhodopsin, as assessed by Coomassie Blue staining of sodium dodecyl sulfate-polyacrylamide gels.
# Urea-treated rod outer segments were phosphorylated with βAR kinase as follows. Urea-treated rod outer segments (˜4 μg of rhodopsin) were incubated with βAR kinase (˜0.1 μg) for 10-15 min at 30° C. in the presence of 40 mM Tris-HCl, pH 7.4, 10 mM NaCl, 5 mM MgCl2, 1.5 mM EDTA, and 65 μM ATP (˜1 cpm/fmol) (total reaction volume was 40 μl). Reactions were stopped by the addition of 40 μl of sodium dodecyl sulfate sample buffer (see below) followed by sodium dodecyl sulfate-polyacrylamide gel electrophoresis. After autoradiography, the phosphorylated rhodopsin bands were excised and counted.
# Sodium dodecyl sulfate-polyacrylamide gel electrophoresis was performed by the method of Laemmli (Nature (1970) 227:680-685) using 10% homogeneous polyacrylamide slab gels. Sample buffer contained 8% sodium dodecyl sulfate, 10% glycerol, 5% 3-mercaptoethanol, 25 mM Tris-HCl, pH 6.5, and 0.003% bromphenol blue. After electrophoresis, gels were dried with a Bio-Rad gel dryer prior to autoradiography.
# βAR kinase [2] = biological target: T1, βAR kinase; assay: Inhibition of β2AR phosphorylation by βAR kinase by synthetic peptides (Example III); assay type: biochemical, bovine; conditions: for inhibition of β2AR phosphorylation: tested at ˜0.5 mM
# Experimental: FIG. 13. Inhibition of β2AR phosphorylation by synthetic peptides. Reconstituted β2AR (˜0.4 pmol) was incubated for 30 min at 30° with purified βAR kinase (˜30 ng) in the presence of 50 mM Tris-HCl, pH 7.5, 2 mM EDTA, 10 mM NaCl, 5 mM MgCl2, 5 mM sodium phosphate, 50 μM (−)-isoproterenol and 0.10 mM [γ^32P]ATP (2.0 cpm/fmol). Synthetic β2AR peptides were varied from 0 to 1 mM and included CI (Δ), CII (▴), CIII-2 (◯) and CT-1 (●). Reactions were stopped by the addition of […]. ^32P-labeled receptor was determined by cutting and counting the dried gel following autoradiography.
# The β2-adrenergic receptor from hamster lung was purified to apparent homogeneity by sequential affinity and high performance liquid chromatography as described (Benovic et al (1984) Biochemistry 23:4510-4518). The purified receptor was reinserted into phosphatidylcholine vesicles as previously described (Cerione et al (1983) Nature 306:562-566). The protein-lipid pellets were resuspended in 20 mM Tris-HCl, pH 7.2, 2 mM EDTA and used as a substrate for the βAR kinase.
# βAR kinase was purified from bovine cerebral cortex by modification of a previously described procedure (Benovic et al (1987) J. Biol. Chem. 262:9026-9032). Briefly, 250 g of bovine cortex was homogenized and the resulting high speed supernatant fraction was precipitated with 13-26% ammonium sulfate. This material was initially chromatographed on an Ultrogel AcA34 column equilibrated with 5 mM Tris-HCl, pH 7.5, 2 mM EDTA, 5 μg/ml leupeptin, 5 μg/ml pepstatin, 15 μg/ml benzamidine, 0.2 mM phenylmethyl sulfonyl fluoride (buffer A). The peak activity was diluted 1:1 with buffer A containing 0.02% triton X-100 and applied to a DEAE Sephacel column. Elution was accomplished with a 0-80 mM NaCl gradient in buffer A containing triton X-100. The peak activity was then applied directly to a CM Fractogel column and eluted with a 0-100 mM NaCl gradient in buffer A containing triton X-100. The purified kinase was stored at 4° C.
# The inhibition of substrate phosphorylation by βAR kinase in the presence of synthetic peptides was assayed as follows. Reconstituted βAR (0.2-1 pmol/inclubation) was incubated with βAR kinase (10-30 ng) in a buffer containing 50 mM Tris-HCl, pH 7.5, 2 mM EDTA, 10 mM NaCl, 5 mM MgCl2, 5 mM sodium phosphate, 50 μM (−)-isoproterenol, 0.10 mM [γ-^32P]ATP (1-3 cpm/fmol) at 30° C. for 30 min. Synthetic β2AR peptides were varied in concentration from 0 to 2 mM. Reactions were quenched by the addition of SDS sample buffer followed by gel electrophoresis. In some experiments urea treated rod outer segments (Wilden et al (1982) Biochemistry 21:3014-3022; Shichi et al (1978) J. Biol. Chem. 253:7040-7046) were used as the substrate for βAR kinase. To further define the specificity of the peptide inhibition, phosvitin, casein (see Example I) and the synthetic peptides CT-2 and CT-3 were used as substrates for βAR kinase.
# SDS polyacrylamide gel electrophoresis was performed by the method of Laemmli (Nature (1970) 227:[…]) using 10 or 15% homogeneous slab gels. SDS sample buffer contained 8% SDS, 10% glycerol, 5% β-mercaptoethanol, 25 mM Tris-HCl, pH 6.5 and 0.003% bromphenol blue. SDS urea polyacrylamide gel electrophoresis was carried out using 6.5 M urea, 0.1% SDS, 100 mM H3PO4, pH 6.8 with Tris-HCl and 9% acrylamide (Swank et al (1971) Anal. Biochem. 39:462). SDS urea sample buffer contained 1% SDS, 8M urea, 10 mM H3PO4, pH 6.8 with Tris-HCl, 1% β-mercaptoethanol and 0.003% bromphenol blue.
# [3] = read-out: IC50 (concentration of compound which gave 50% inhibition of βAR kinase), rhodopsin as substrate
# [4] = rhodopsin as substrate, mean ± S.E.
# [5] = IC50 (concentration of compound which gave 50% inhibition of βAR kinase), rhodopsin as substrate
# [6] = IC50 (concentration of compound which gave 50% inhibition of βAR kinase), rhodopsin as substrate, mean ± S.E.
# [7] = β2AR as substrate, read-out: IC50 (μM), first intracellular loop peptides as inhibitors of βAR kinase
# [8] = hamster β2AR peptides, ND = no significant inhibition at ˜500 μM, read-out: IC50 (μM), inhibition of β2AR phosphorylation by βAR kinase
molecule,measurement,setting,value
"O=C(O)C(COP(=O)(O)O)OP(=O)(O)O (centres unmarked) [2,3-Diphosphoglycerate, 2,3-diphosphoglycerate]",IC50,βAR kinase [1]; [3],1100 µM
same,concentration range of inhibition,βAR kinase [1]; rhodopsin as substrate,millimolar range
same,IC50 (concentration of compound which gave 50% inhibition of βAR kinase),βAR kinase [1]; [4],838 µg/mL
CC[C@H](C)[C@H](NC(=O)[C@H](C)NC(=O)[C@H](CCCCN)NC(=O)[C@H](CCC(N)=O)NC(=O)[C@H](Cc1c[nH]cn1)NC(=O)[C@@H](N)[C@@H](C)O)C(=O)N[C@@H](CC(=O)O)C(=O)N[C@@H](CS)C(=O)N[C@@H](Cc1ccc(O)cc1)C(=O)N[C@@H](Cc1c[nH]cn1)C(=O)N[C@@H](CCCCN)C(=O)N[C@@H](CCC(=O)O)C(=O)N[C@H](C(=O)N[C@@H](CS)C(=O)O)[C@@H](C)O [EII (177-190)] (H-THQKAIDCYHKETC-OH; N-terminus and C-terminus assumed),inhibition of β2AR phosphorylation,βAR kinase [2],do not inhibit
"O=S(=O)(O)NC1C(O)OC(COS(=O)(=O)O)C(O)C1O (centres unmarked) [Glucosamine 2,6-disulfate, glucosamine 2,6-disulfate]",IC50,βAR kinase [1]; [3],7300 µM
same,concentration range of inhibition,βAR kinase [1]; rhodopsin as substrate,millimolar range
same,IC50 (concentration of compound which gave 50% inhibition of βAR kinase),βAR kinase [1]; [4],2800 µg/mL
"O=P(O)(O)O[C@H]1[C@H](OP(=O)(O)O)[C@@H](OP(=O)(O)O)[C@H](OP(=O)(O)O)[C@@H](OP(=O)(O)O)[C@H]1OP(=O)(O)O [Inositol hexaphosphate, inositol hexaphosphate]",IC50,βAR kinase [1]; [5],3600 µM
same,IC50,βAR kinase [1]; [6],5040 µM
"O=S(=O)(O)OC1C(OS(=O)(=O)O)C(OS(=O)(=O)O)C(OS(=O)(=O)O)C(OS(=O)(=O)O)C1OS(=O)(=O)O (centres unmarked) [Inositol hexasulfate, inositol hexasulfate]",IC50,βAR kinase [1]; [5],13.5 µM
same,IC50,βAR kinase [1]; [6],18.2 µM
same,times more potent than inositol hexaphosphate,βAR kinase [1]; rhodopsin as substrate,~270 times
"Cc1ncc(COP(=O)(O)O)c(C=O)c1O [Pyridoxal phosphate, pyridoxal phosphate]",IC50,βAR kinase [1]; [5],900 µM
same,IC50,βAR kinase [1]; [6],898 µM
same,concentration range of inhibition,βAR kinase [1]; rhodopsin as substrate,millimolar range
"NCCCNCCCCNCCCN [Spermine, spermine]",inhibition of βAR kinase,βAR kinase [1],weak inhibitors
NCCCCNCCCN [spermidine],inhibition of βAR kinase,βAR kinase [1],weak inhibitors
"AIAAFEALQTVTNYF [β2AR (57-71, K → A, R → A)]",IC50,βAR kinase [2]; [7],88 µM
"AIAKFERAQTVTAYF [β2AR (57-71, L → A, N → A)]",IC50,βAR kinase [2]; [7],43 µM
"AIAKFQRLQTVTNYF [β2AR (57-71, E → Q), AIAKFORLQTVTNYF]",IC50,βAR kinase [2]; [7],280 µM
AIAKTPRLQTLTNLF [β1AR],IC50,βAR kinase [2]; [7],700 µM
AVFTSRALKAPQNLF [α2AR],IC50,βAR kinase [2]; [7],> 1000 µM
"KFERLQT [β2AR (60-66), KFERLQT]",IC50,βAR kinase [2]; [7],2600 µM
KMWNFGNFWC [EI (97-106)],IC50,βAR kinase [2]; [8],300 µM
SHVPDHDVTEERDEAW [NT (17-32)],inhibition of β2AR phosphorylation,βAR kinase [2],do not inhibit
TAIAKFERLQTVTNYFITS [β2AR (56-74)],IC50,βAR kinase [2]; [8],~40 µM and 40 µM
same,IC50,βAR kinase [2]; [7],40 µM
VTVQHKKLRTPLNYI [Rhodopsin],IC50,βAR kinase [2]; [7],> 1000 µM
chondroitin sulfate B,IC50 (concentration of compound which gave 50% inhibition of βAR kinase),βAR kinase [1]; [4],25 µg/mL
chondroitin sulfate C,IC50 (concentration of compound which gave 50% inhibition of βAR kinase),βAR kinase [1]; [4],6 µg/mL
de-N-sulfated heparin,Hill coefficient of inhibition,βAR kinase [1],~2
same,fold weaker than heparin,βAR kinase [1]; rhodopsin as substrate,~8 fold
same,IC50 (concentration of compound which gave 50% inhibition of βAR kinase),βAR kinase [1]; [4],6.0 ± 2.4 µg/mL
dextran sulfate,Hill coefficient of inhibition,βAR kinase [1],~2
same,IC50,βAR kinase [1]; [3],0.15 µM
same,IC50 (concentration of compound which gave 50% inhibition of βAR kinase),βAR kinase [1]; [4],0.76 ± 0.21 µg/mL
heparan sulfate,IC50 (concentration of compound which gave 50% inhibition of βAR kinase),βAR kinase [1]; [4],1.8 µg/mL
polyaspartic acid,IC50,βAR kinase [1]; [3],1.3 µM
same,IC50 (concentration of compound which gave 50% inhibition of βAR kinase),βAR kinase [1]; [4],14 µg/mL
polyglutamic acid,IC50,βAR kinase [1]; [3],2 µM
same,IC50 (concentration of compound which gave 50% inhibition of βAR kinase),βAR kinase [1]; [4],27 ± 2 µg/mL
